Test results published in US11560455B2, “Method for rapid gelation of silk fibroin solution under physiological conditions” (SOOCHOW UNIVERSITY, priority 2017, dated 2023).

Test system: Human umbilical vein endothelial cells (HUVECs)
Test: Cell viability by CCK-8 assay
Format: cell-based
Conditions: 24 h, NapFF 10.0-200.0 μM, silk fibroin 0.1-2.0%, FIG. 9
Description: The cell viability was detected by CCK-8 assay. Human umbilical vein endothelial cells (HUVECs) were dispersed in a 96-well plate (at a cell concentration of 4000 cells/well) and cultured for 24 h in a 5% CO2 atmosphere at 37° C. The previous medium was replaced with a medium containing different concentrations of NapFF (10.0 μM, 20.0 μM, 50.0 μM, 100.0 μM, and 200.0 μM) and silk fibroin solutions (0.1%, 0.2%, 0.5%, 1.0%, and 2.0%), which was in turn replaced with a CCK-8 solution after 24 h. Finally, the optical density value (OD value) of the solution at 450 nm was measured on a microplate reader. The cell viability is expressed as percentage of the number of control (untreated) cells. The cell viability of the control group was set to 100% by default, and all experiments were performed in 5 replications.

## O=C(Cc1ccc2ccccc2c1)N[C@@H](Cc1ccccc1)C(=O)N[C@@H](Cc1ccccc1)C(=O)O [NapFF, 2-naphthaleneacetic acid-phenylalanine-phenylalanine]
  Cytotoxicity (cell viability, CCK-8): good biocompatibility
